Measurements as given in patent US6352958B1, “Cycloimido-substituted benzofused heterocyclic herbicides” (FMC Corporation, priority 1997, dated 2002).

Columns and labels:
Type in all cases: in vivo
[1] = test system: soybean (Glycine max var. Winchester); assay: Preemergence herbicidal activity, soybean; settings: Rate of Application 0.3 Kg/Ha, examined after 12-17 days
[2] = test system: wheat (Triticum aestivum var. Lew); assay: Preemergence herbicidal activity, wheat; settings: Rate of Application 0.3 Kg/Ha, examined after 12-17 days
[3] = test system: field corn (Zea mays var. Pioneer 3732); assay: Preemergence herbicidal activity, corn; settings: Rate of Application 0.3 Kg/Ha, examined after 12-17 days
[4] = test system: velvetleaf (Abutilon theophrasti); assay: Preemergence herbicidal activity, velvetleaf; settings: Rate of Application 0.3 Kg/Ha, examined after 12-17 days
[5] = test system: morningglory (Ipomea lacunosa or Ipomea hederacea); assay: Preemergence herbicidal activity, morningglory; settings: Rate of Application 0.3 Kg/Ha, examined after 12-17 days
[6] = test system: common chickweed (Stellaria media); assay: Preemergence herbicidal activity, chickweed; settings: Rate of Application 0.3 Kg/Ha, examined after 12-17 days
[7] = test system: common cocklebur (Xanthium strumarium L.); assay: Preemergence herbicidal activity, cocklebur; settings: Rate of Application 0.3 Kg/Ha, examined after 12-17 days
[8] = test system: blackgrass (Aloepecurus myosuroides); assay: Preemergence herbicidal activity, blackgrass; settings: Rate of Application 0.3 Kg/Ha, examined after 12-17 days
[9] = test system: green foxtail (Setaria viridis); assay: Preemergence herbicidal activity, green foxtail; settings: Rate of Application 0.3 Kg/Ha, examined after 12-17 days
[10] = test system: Johnsongrass (Sorghum halepense); assay: Preemergence herbicidal activity, johnsongrass; settings: Rate of Application 0.3 Kg/Ha, examined after 12-17 days
[11] = test system: soybean (Glycine max var. Winchester); assay: Postemergence herbicidal activity, soybean; settings: rate of application 0.3 Kg/Ha, rated after 12-17 days
[12] = test system: wheat (Triticum aestivum var. Lew); assay: Postemergence herbicidal activity, wheat; settings: rate of application 0.3 Kg/Ha, rated after 12-17 days
[13] = test system: field corn (Zea mays var. Pioneer 3732); assay: Postemergence herbicidal activity, corn; settings: rate of application 0.3 Kg/Ha, rated after 12-17 days
[14] = test system: velvetleaf (Abutilon theophrasti); assay: Postemergence herbicidal activity, velvetleaf; settings: rate of application 0.3 Kg/Ha, rated after 12-17 days
[15] = test system: morningglory (Ipomea lacunosa or Ipomea hederacea); assay: Postemergence herbicidal activity, morningglory; settings: rate of application 0.3 Kg/Ha, rated after 12-17 days
[16] = test system: common chickweed (Stellaria media); assay: Postemergence herbicidal activity, chickweed; settings: rate of application 0.3 Kg/Ha, rated after 12-17 days
[17] = test system: common cocklebur (Xanthium strumarium L.); assay: Postemergence herbicidal activity, cocklebur; settings: rate of application 0.3 Kg/Ha, rated after 12-17 days
[18] = test system: blackgrass (Aloepecurus myosuroides); assay: Postemergence herbicidal activity, blackgrass; settings: rate of application 0.3 Kg/Ha, rated after 12-17 days
[19] = test system: green foxtail (Setaria viridis); assay: Postemergence herbicidal activity, green foxtail; settings: rate of application 0.3 Kg/Ha, rated after 12-17 days
[20] = test system: Johnsongrass (Sorghum halepense); assay: Postemergence herbicidal activity, johnsongrass; settings: rate of application 0.3 Kg/Ha, rated after 12-17 days

Structure (SMILES)	PREEMERGENCE HERBICIDAL ACTIVITY (% CONTROL) SOY [1] [%]	PREEMERGENCE HERBICIDAL ACTIVITY (% CONTROL) WHT [2] [%]	PREEMERGENCE HERBICIDAL ACTIVITY (% CONTROL) CRN [3] [%]	PREEMERGENCE HERBICIDAL ACTIVITY (% CONTROL) ABUTH [4] [%]	PREEMERGENCE HERBICIDAL ACTIVITY (% CONTROL) IPOSS [5] [%]	PREEMERGENCE HERBICIDAL ACTIVITY (% CONTROL) STEME [6] [%]	PREEMERGENCE HERBICIDAL ACTIVITY (% CONTROL) XANPE [7] [%]	PREEMERGENCE HERBICIDAL ACTIVITY (% CONTROL) ALOMY [8] [%]	PREEMERGENCE HERBICIDAL ACTIVITY (% CONTROL) SETVI [9] [%]	PREEMERGENCE HERBICIDAL ACTIVITY (% CONTROL) SORHA [10] [%]	Postemergence herbicidal activity (% control) SOY [11] [%]	Postemergence herbicidal activity (% control) WHT [12] [%]	Postemergence herbicidal activity (% control) CRN [13] [%]	Postemergence herbicidal activity (% control) ABUTH [14] [%]	Postemergence herbicidal activity (% control) IPOSS [15] [%]	Postemergence herbicidal activity (% control) STEME [16] [%]	Postemergence herbicidal activity (% control) XANPE [17] [%]	Postemergence herbicidal activity (% control) ALOMY [18] [%]	Postemergence herbicidal activity (% control) SETVI [19] [%]	Postemergence herbicidal activity (% control) SORHA [20] [%]
Cn1c(C(F)(F)F)cc(=O)n(-c2c(F)cc(Cl)c3oc(C(C)(C)C)nc23)c1=O [Compound 30]	100	100	95	100	100	100	90	100	100	100	95	80	90	100	100	100	100	90	100	100
CC(F)c1cc2c(Cl)cc(F)c(-n3c(=O)cc(C(F)(F)F)n(C)c3=O)c2o1 (stereo not shown) [Compound 235]	100	90	100	100	100	100	100	80	100	100	100	100	100	100	100	100	100	100	100	100
CN(C)C(=O)c1cc2c(Cl)cc(F)c(-n3c(=O)cc(C(F)(F)F)n(C)c3=O)c2o1 [Compound 275]	100	80	100	100	100	100	100	80	100	95	100	70	90	100	100	100	100	95	100	100
CCCc1nc2c(-n3c(=O)cc(C(F)(F)F)n(C)c3=O)c(F)cc(Cl)c2o1 [Compound 26]	100	90	90	100	100	100	100	95	100	100	96	60	80	100	100	80	100	80	100	80
CCOC(OCC)c1cc2c(Cl)cc(F)c(-n3c(=O)cc(C(F)(F)F)n(C)c3=O)c2o1 [Compound 245]	100	60	80	100	100	90	100	70	100	80	85	40	75	100	100	60	70	50	70	70
Cn1c(C(F)(F)F)cc(=O)n(-c2c(F)cc(Cl)c3cc(CCC(=O)O)oc23)c1=O [Compound 262]	90	40	40	100	100	100	100	50	100	70	95	60	80	100	100	95	95	50	100	80
COC(=O)CCc1cc2c(Cl)cc(F)c(-n3c(=O)cc(C(F)(F)F)n(C)c3=O)c2o1 [Compound 263]	100	50	65	100	100	100	95	75	100	70	95	80	90	100	100	100	100	60	90	70
CCOC(=O)CCc1nc2c(-n3c(=O)cc(C(F)(F)F)n(C)c3=O)c(F)cc(Cl)c2[nH]1 [Compound 372]	100	90	95	100	100	100	100	80	100	80	100	100	100	100	100	100	100	100	100	100
